Experimental data reported in US20150025080A1, “SOLID DISPERSIONS OF SITAGLIPTIN AND PROCESSES FOR THEIR PREPARATION” (RANBAXY LABORATORIES LIMITED, priority 2011, published 2015).

Assay: Storage stability in humidity chamber at 50% RH and 25° C., evaluated by XRPD
Format: physicochemical
Settings: about 50% relative humidity
Experimental: The X-ray powder diffractograms (XRPD) of the samples were determined by using Instrument: PANalytical; Mode: Expert PRO; Detector: Xcelerator; ScanRange: 3-40; Step size: 0.02; Range: 3-40° 2 theta; CuKα radiation at 45 kV.
0.52 g of the product obtained as per Example 2 was stored in double sealed polybags in a humidity chamber maintained at 50% RH and 25° C. for 4 days to evaluate the stability. The XRPD pattern of the compound stored at 50% RH and 25° C. for 4 days is depicted in FIG. 10.
0.54 g of the product obtained as per Example 2 was stored in double sealed polybags in a humidity chamber maintained at 50% RH and 25° C. for 10 days to evaluate the stability. The XRPD pattern of the compound stored at 50% RH and 25° C. for 10 days is depicted in FIG. 11.
0.54 g of the product obtained as per Example 5 was stored in double-sealed polybags in a humidity chamber maintained at 50% RH and 25° C. for 4 days to evaluate the stability. The XRPD pattern of the product stored at 50% RH and 25° C. for 4 days is depicted in FIG. 13.
0.53 g of the product obtained as per Example 5 was stored in double-sealed polybags in a humidity chamber maintained at 50% RH and 25° C. for 10 days to evaluate the stability. The XRPD pattern of the product stored at 50% RH and 25° C. for 10 days is depicted in FIG. 14. […]

time period in which the amorphous form tends to undergo crystallization: about 4 days
SMILES: N[C@@H](CC(=O)N1CCn2c(nnc2C(F)(F)F)C1)Cc1cc(F)c(F)cc1F [sitagliptin dihydrogen phosphate]
